This is an account of results in ChEMBL document CHEMBL1131825, “A 2-nitroimidazole carbamate prodrug of 5-amimo-1-(chloromethyl)-3-[(5,6,7-trimethoxyindol-2-yl)carbony l]-1,2-dihydro-3H--benz[E]indole (amino-seco-CBI-TMI) for use with ADEPT and GDEPT” (Bioorg Med Chem Lett, 1999).

The subject of experiment [1] is SK-OV-3. Briefly: In vitro cytotoxicity against SKOV3 cell proliferation after 18 hr exposure in presence of 1 mM NADH. It counts as functional, cell-based. The following applies: Homo sapiens, SK-OV-3, 18 h.
For another experiment, the system named is SC-3. Briefly: In vitro cytotoxicity against SC3.2 cell proliferation after 18 hr exposure. It counts as functional, cell-based, Homo sapiens. The following applies: Mus musculus, SC-3, 18 h.
Experiment [2] deals with SK-OV-3. Briefly: In vitro cytotoxicity against SKOV3 cell proliferation after 18 hr exposure in presence of 1 mM NADH + NTR. It counts as functional, cell-based. Particulars: Homo sapiens, SK-OV-3, 18 h.
For experiment [3], the system named is SK-OV-3. Briefly: In vitro cytotoxicity against SKOV3 cell proliferation after 18 hr exposure in absence of reagent. It counts as functional, cell-based. The following applies: Homo sapiens, SK-OV-3, 18 h.
Experiment [4] has as its system SK-OV-3. Briefly: In vitro cytotoxic activity against SKOV3 cell line after 1 hour at less than 0.01 % of oxygen in gas phase. It counts as functional, Homo sapiens.
Experiment [5] concerns SK-OV-3. Briefly: In vitro cytotoxic activity against SKOV3 cell line after 4 hours at less than 0.01 % of oxygen in gas phase. It counts as functional, Homo sapiens.
For experiment [6], the system named is SK-OV-3. Briefly: In vitro cytotoxic activity against SKOV3 cell line after 1 hour at 20% oxygen present in gas phase. It counts as functional, Homo sapiens.
In experiment [7] the test system is SK-OV-3. Briefly: In vitro cytotoxic activity against SKOV3 cell line after 4 hours at 20% oxygen present in gas phase. It counts as functional, Homo sapiens.

On to `COc1cc2cc(C(=O)N3CC(CCl)c4c3cc(N)c3ccccc43)[nH]c2c(OC)c1OC` (configuration not stated), for which the IC50 is 0.96 nM with SK-OV-3 [1], 2.17 nM in the experiment with SC-3, 1.14 nM with SK-OV-3 [2] and 1.1 nM with SK-OV-3 [3].

In the case of `COc1cc2cc(C(=O)N3CC(CCl)c4c3cc(NC(=O)OCc3cnc([N+](=O)[O-])n3C)c3ccccc43)[nH]c2c(OC)c1OC` (configuration not stated), the IC50 in the experiment on SK-OV-3 [1] is 57 nM; with SC-3 it was 3.5 nM; in the experiment on SK-OV-3 [2], 8 nM; in the experiment with SK-OV-3 [3], 75 nM. Besides, the C10 in the experiment on SK-OV-3 [4] was found to be 135 nM; with SK-OV-3 [5], 15 nM; in the experiment with SK-OV-3 [6] it was 2100 nM; in the experiment on SK-OV-3 [7], 600 nM.

Usually IC50 stands for the point on the concentration scale where inhibition reaches its midpoint.
